The values that follow come from US11944609B1, “Antifungal ionic liquid and Amphotericin B combination” (KING ABDULAZIZ UNIVERISTY, priority 2023, dated 2024).

The nature of series [1]: Viscosity measurement (RHEOSENSE MicroVisc viscometer). The class given is physicochemical. The following applies: 298K, atmospheric pressure.
The test system of series [2] is horse red blood cells (H-RBC). Description: Haemolytic activity (cytotoxicity on red blood cells). The class given is cell-based. As for the experimental part:
The cytotoxicity of IPC8 on horse red blood cells (H-RBC) was checked by conducting a cytotoxicity assay. Briefly, the RBC was separated from the horse blood and was thoroughly washed with NaCl (150 mM) solution. Thereafter, RBC suspension (2%) was prepared in sterile PBS, followed by the addition (180 μL) to a microcentrifuge tube containing […] ([…]), the microcentrifuge tubes were kept aside for 45 min at 37° C. followed by centrifugation at 1300×g for 5 min. The supernatant (100 μL) was collected in a separate tube and mixed with 900 μL of sterile PBS. Aliquots (200 μL) were taken from each dilution and transferred to a 96-well flat bottom microtiter plate, and optical density was measured at 540 nm (SpectraMax iD3 multi-mode microplate reader, Molecular Devices). The negative control contained RBC suspension in PBS, and the positive control had RBC treated with 0.1% Triton X-100. To calculate the percentage of hemolysis below formula was used.

Series [3] can be described thus: Density measurement (Density Meter DMA 501). It is filed as physicochemical. The settings on record: 298K, atmospheric pressure. On the procedure: The uncertainties in the density measurements, considering the sample handling and purity, are determined to be with an accuracy of 0.0001 g/cm3.
For series [4], the system named is C. auris. Description: In vitro time-kill assay. It is filed as cell-based, Candida auris. The following applies: for Average log10 CFU/mL: healthy control 7.78. On the procedure:
The assay for determining the time-kill kinetics values of IPC8 against C. auris was carried out at various concentrations (½, 1, 2, and 4 times the MIC) against C. auris. The C. auris cell suspension with a starting inoculum of around 1×105 to 5×10^5 CFU/mL was incubated with/without IPC8 at 35° C.±2° C. and 150 rpm. Aliquots (100 μL) were taken out at predetermined time points (0, 2, 4, 6, 8, 12, and 24 h), and for determining CFU counts, the aliquots were serially diluted in sterile water and plate (20 μL) on SDA growth medium. The plates were incubated at 35° C.±2° C. for 24 to 48 h, and the number of colonies was counted using a colony counter. The experiment was performed in duplicate, and the result is articulated in log 10 viable CFU/mL.

Series [5] has as its system C. auris. In words: Antifungal susceptibility by broth microdilution (MIC) and SDA plating (MFC). It is filed as cell-based, Candida auris. The following applies: for Average MIC value / Average MFC value: compound alone, C. auris (2921); for Average MIC value: concentration giving 100% inhibition; for Average MFC value: no visible colonies on SDA after 24 h. As for the experimental part: In this work, the antifungal activity of the ionic liquids (IPC4-IPC12) against C. auris was investigated in terms of minimum inhibitory concentration (MIC) and minimum fungicidal concentration (MFC). A stock solution of 20 mg/mL was prepared in 1% Dimethyl sulfoxide (DMSO; Sigma-Aldrich, USA). Fourteen different concentrations of test ILs were prepared by performing serial dilution in a flat bottom 96-well microtiter plate, followed by the addition of C. auris cells (0.5×103-2.5×10^3 cells/mL; 100 μL) which gave us the final test concentrations of ILs (5000-0.61 μg/mL). Amphotericin B was used as a positive control, 1% DMSO as a negative control, and drug-free control was used in each set of experiments. The optical density was determined at a wavelength of 600 nm using SpectraMax iD3 multi-mode microplate reader, and the concentration resulting in 100% inhibition was picked up as the MIC value. Post-MIC evaluation, MFC was estimated by administrating 10 μL of samples from the wells displaying MIC and beyond on a Sabouraud Dextrose Agar (SDA) plate. The plates were incubated at 35±2° C. for 24 h, and the concentration resulting in no visible colonies was documented as MFC value for respective ionic liquids.
(In general: Dilution methods test growth across graded concentrations, often in twofold steps.)

Series [6] has as its system C. auris. In words: Checkerboard microdilution assay of ionic liquids with amphotericin B, with varied ratio isobolograms. The class given is cell-based, Candida auris. The following applies: for MIC of ionic liquids in combination with AmB: 1:1 combination with amphotericin B; for Decrease in the MIC when used together: IPC8 + amphotericin B combination versus alone; for Average MIC values of individual compounds: alone; for FICb: fractional inhibitory concentration of amphotericin B; for FICa: fractional inhibitory concentration of the ionic liquid; for Type of interaction / ΣFIC: ionic liquid + amphotericin B. As for the experimental part: The type of interaction between ionic liquids and amphotericin B against C. auris was evaluated by the checkerboard microdilution method. The concentrations of ionic liquids used ranged from 5000-0.61 μg/mL, and amphotericin B was 64-0.06 μg/mL. Subsequently, equal volumes (50 μL) of ionic liquids and amphotericin B were dispensed into pre-determined wells, which were further supplemented with C. auris cells (0.5×103-2.5×10^3 cells/mL; 100 μL) followed by incubation at 35±2° C. for 24 h. Also, each experiment included DMSO (1%) was added as negative control along with growth and sterility controls. […] The interaction between the test compounds and amphotericin B was deduced according to the calculated coefficient of the sum of fractional inhibitory concentrations (ΣFIC).
[formula] MICa=MIC of the ionic liquids; MICb=MIC of amphotericin B. The FICI values were interpreted as ΣFIC≤0.5, synergy; ΣFIC>0.5-≤1, additivity; ΣFIC>1-<2, no interaction; ΣFIC≥2, antagonism.

[7] abbreviates: nine ratios of IPC8 and amphotericin B (10:90 to 90:10), isobolograms.

`CCCCCCCC[n+]1ccn2ccccc21.[Br-]` [IPC8, 1-Octylimidazo[1,2-a] pyridinium bromide]: the Viscosity in series [1] is on record as 25.21 mPa. In series [2] (156.25 μg/mL), this molecule came in with a Haemolysis of 16.14%. The same molecule yielded a Density in series [3] of 1.0094 g/mL. Also, the “Time to candidacidal endpoint” value in the series with C. auris [4] (2 times MIC) worked out at 12 h. The “Time to 50% reduction in the log10 CFU/mL from the inoculum” value with C. auris [4] (MIC) amounted to 12 h. In addition, the “Average log10 CFU/mL” value in the series with C. auris [4] (after 24 hr exposure to MIC) came out at 4.67 log10 CFU/mL. Also, the “Average log10 CFU/mL” value with C. auris [4] (after 24 hr exposure to ½ MIC) is 5.8 log10 CFU/mL. Besides, in the series on C. auris [4] (four times MIC), the “Time to 50% reduction in the number of CFU” value came out at 2 h and the “Time to candidacidal endpoint” value turned out to be 24 h. In the series on C. auris [4] (kill of ≥log 3, concentration- and time-dependent), the “Nature of activity in time-kill curve” value is recorded as “fungicidal”. Besides, in the series with C. auris [4] (two times MIC), the “Time to 50% reduction in the number of CFU” value is recorded as 4 h. Besides, in the series on C. auris [5] (IPC8 versus other ionic liquids), the “Fold lower MIC and MFC values compared to other tested ionic liquids” value is reported as 3 to 8 fold. In the series with C. auris [5], the “Average MIC value” stood at 4.88 µg/mL and the “Average MFC value” is 9.76 µg/mL. Moreover, in the series on C. auris [6], the “MIC of ionic liquids in combination with AmB” value (“MIC of ionic liquids” for short) was determined as 1.22 µg/mL, the “Decrease in the MIC when used together” value was “four-fold”, the “Average MIC values of individual compounds” value (shortened to “Average MIC values”) is 4.88 µg/mL and the FICb turned out to be 0.125. For the same molecule, in the series with C. auris [6], the FICa stood at 0.25; the Type of interaction result was “SYN (ΣFIC≤0.5, synergy)”; the ΣFIC is 0.38. For the same molecule, in the series with C. auris [6] (setting [7]), the “Number of ratios (out of nine) with additive interaction” value is recorded as “two” and the “Number of ratios (out of nine) with strong synergistic effect” value is “seven”.

Regarding `C[C@@H]1[C@H](O)[C@@H](C)/C=C/C=C/C=C/C=C/C=C/C=C/C=C/[C@H](O[C@@H]2O[C@H](C)[C@@H](O)[C@H](N)[C@@H]2O)C[C@@H]2O[C@](O)(C[C@@H](O)C[C@@H](O)[C@H](O)CC[C@@H](O)C[C@@H](O)CC(=O)O[C@H]1C)C[C@H](O)[C@H]2C(=O)O` [Amphotericin B], in the series on C. auris [5], the “Average MIC value” worked out at 2.0 µg/mL and the “Average MFC value” is 4.0 µg/mL. In the series on C. auris [5] (listed as amphotericin B), the “Average MIC value” turned out to be 2 µg/mL and the “Average MFC value” turned out to be 4 µg/mL. In addition, in the series on C. auris [6], the “Decrease in the MIC when used together” value was “four-fold” and the “Average MIC values” value came out at 2.0 µg/mL.

In series [1], `CCCC[n+]1ccn2ccccc21.[Br-]` [IPC4, 1-Butylimidazo[1,2-a] pyridinium bromide] came in with a Viscosity of 4.14 mPa. For the same molecule, the Density in series [3] stood at 1.0310 g/mL. Also, in the series on C. auris [5], the “Average MIC value” was 78.12 µg/mL and the “Average MFC value” was found to be 312.5 µg/mL. Besides, in the series with C. auris [6], the “MIC of ionic liquids” value is 39.06 µg/mL, the “Average MIC values” value was 78.12 µg/mL, the FICb is 1.0 and the FICa is listed as 0.5. In the series on C. auris [6], the Type of interaction entry is listed as “No INT (ΣFIC>1-<2, no interaction)” and the ΣFIC was 1.5.

In series [1], `CCCCCC[n+]1ccn2ccccc21.[Br-]` [IPC6, 1-Hexylimidazo[1,2-a] pyridinium bromide] yielded a Viscosity of 14.7 mPa. The Density in series [3] is 1.0102 g/mL. In addition, in the series on C. auris [5], the “Average MIC value” turned out to be 39.06 µg/mL and the “Average MFC value” stood at 78.12 µg/mL. Besides, in the series with C. auris [6], the “MIC of ionic liquids” value came out at 9.76 µg/mL, the “Average MIC values” value came to 39.06 µg/mL, the FICb amounted to 0.25 and the FICa is reported as 0.24. Further, in the series on C. auris [6], the Type of interaction result was “SYN (ΣFIC≤0.5, synergy)” and the ΣFIC was 0.49.

As to triton X-100 [reference compound], in series [2], the “Haemolysis (observation)” value was “clear haemolysis”.

In series [1], `CCCCCCCCCC[n+]1ccn2ccccc21.[Br-]` [IPC10, 1-Decylimidazo[1,2-a] pyridinium bromide] returned a Viscosity of 27.20 mPa. Further, in series [3], the Density is 1.0081 g/mL. Also, in the series on C. auris [5], the “Average MIC value” stood at 78.12 µg/mL and the “Average MFC value” was 312.5 µg/mL. Besides, in the series on C. auris [6], the “MIC of ionic liquids” value came to 19.53 µg/mL, the “Average MIC values” value stood at 78.12 µg/mL, the FICb was 0.5 and the FICa was 0.25. Besides, in the series with C. auris [6], the Type of interaction result is listed as “ADD (ΣFIC>0.5-≤1, additivity)” and the ΣFIC was determined as 0.75.

Turning to `CCCCCCCCCCCC[n+]1ccn2ccccc21.[Br-]` [IPC12, 1-Dodecylimidazo[1,2-a] pyridinium bromide], the Viscosity in series [1] amounted to 28.60 mPa. In series [3], this molecule displayed a Density of 1.0049 g/mL. Further, in the series on C. auris [5], the “Average MIC value” turned out to be 312.5 µg/mL and the “Average MFC value” stood at 625 µg/mL. Further, in the series with C. auris [6], the “MIC of ionic liquids” value amounted to 156.25 µg/mL, the “Average MIC values” value amounted to 312.5 µg/mL, the FICb is 0.5 and the FICa is 0.25. In the series with C. auris [6], the Type of interaction result is “ADD (ΣFIC>0.5-≤1, additivity)” and the ΣFIC is on record as 0.75.
